From patent US9353089B2, “Compositions and methods for the treatment of malaria” (Saint Louis University, priority 2013, dated 2016)
pIC50: −log10 of the molar value.

Tested on: Plasmodium falciparum 3D7 (CQ-sensitive)
Assay: In vitro antimalarial assay (malaria SYBR Green I-based fluorescence, MSF), 3D7
Format: cell-based
Conditions: 3D7, Table 11, read-out: Pf 3D7 IC50
Procedure: Stock solutions of each test drug were prepared in DMSO at a concentration of 20 mM. The drug solutions were serially diluted with culture medium and distributed to asynchronous parasite cultures on 96-well plates in quadruplicate in a total volume of 100 μL to achieve 0.5% parasitemia with a 2% hematocrit in a total volume of 100 pt. […] After incubation, 100 μL of lysis buffer with 0.2 μL/mL SYBR Green I was added to each well.
Antimalarial potency of compounds was determined by this technique for both Plasmodium falciparum 3D7 (CQ-sensitive) and Dd2 (multi-drug resistant) strains.

pIC50 | SMILES
5.97 | N=C1NC(c2cccc(Cl)c2)(c2cccc(Cl)c2)C(=O)N1C1CCCCC1 [Example 267, 5,5-bis(3-chlorophenyl)-3-cyclohexyl-2-iminoimidazolidin-4-one]
6.50 | COc1cccc(C2(c3cccc(-c4ccncc4)c3)NC(=N)N(C3CCCCC3)C2=O)c1 (stereo not shown) [Example 225, 3-cyclohexyl-2-imino-5-(3-methoxy-phenyl)-5-[3-(pyridin-4-yl)phenyl]imidazolidin-4-one]
6.37 | N=C1NC(c2ccccc2)(c2cccc(Oc3ccccc3)c2)C(=O)N1C1CCCCC1 (stereo not shown) [Example 238, 3-cyclohexyl-2-imino-5-(3-phenoxyphenyl)-5-phenylimidazolidin-4-one]
6.14 | N=C1NC(c2cccc(-c3cccnc3)c2)(c2cccc(-c3cccnc3)c2)C(=O)N1C1CCCCC1 [Example 269, 3-cyclohexyl-2-imino-5,5-bis[3-(pyridin-3-yl)phenyl]imidazolidin-4-one]

Same assay, conditions: 3D7, Table 13, read-out: 3D7 IC50

pIC50 | SMILES
5.63 | N=C1NC(c2ccccc2Cl)(C2CC2)C(=O)N1C1CCOCC1 (stereo not shown) [Example 500, 5-(2-chlorphenyl)-5-cyclopropyl-2-imino-3-(tetrahydro-2H-pyran-4-yl)imidazolidin-4-one]
5.78 | N=C1NC(c2ccc(Cl)cc2)(C2CC2)C(=O)N1C1CCCCC1 (stereo not shown) [Example 577, 5-(4-chlorophenyl)-3-cyclohexyl-5-cyclopropyl-2-iminoimidazolidin-4-one]
6.14 | COc1ccc(C2(c3ccc(OC)cc3)NC(=N)N(C3CCC(C)CC3)C2=O)cc1 (stereo not shown) [Example 270, 2-imino-5,5-bis(4-methoxyphenyl)-3-(4-methylcyclohexyl)imidazolidin-4-one]
6.42 | COc1ccc(C2(c3ccc(OC)cc3)NC(=N)N(Cc3cccc(C)c3)C2=O)cc1 [Example 253, 2-imino-5,5-bis(4-methoxyphenyl)-3-[(3-methylphenyl)-methyl]imidazolidin-4-one]
6.01 | COc1ccc(C2(c3ccc(OC)cc3)NC(=N)N(Cc3cc(C)ccc3C)C2=O)cc1 [Example 272, 3-[(2,5-dimethylphenyl)-methyl]-2-imino-5,5-bis(4-methoxyphenyl) imidazolidin-4-one]
6.07 | N=C1NC(c2ccc(O)cc2)(c2ccc(O)cc2)C(=O)N1C1CCCCC1 [Example 547, 3-cyclohexyl-5,5-bis(4-hydroxyphenyl)-2-iminoimidazolidin-4-one]
< 5.30 | CC(C)COc1cccc(C2(c3cccc(OCC(C)C)c3)NC(=N)N(C3CCOCC3)C2=O)c1 [Example 389, 2-imino-5,5-bis[3-(2-methylpropoxy)phenyl]-3-(oxan-4-yl)imidazolidin-4-one]
6.16 | COc1ccc(C2(c3ccc(OC)cc3)NC(=N)N(Cc3cccc(Cl)c3)C2=O)cc1 [Example 235, 3-[(3-chlorophenyl)-methyl]-2-imino-5,5-bis(4-methoxyphenyl)-imidazolidin-4-one]
6.15 | COc1ccc(C2(c3ccc(OC)cc3)NC(=N)N(Cc3cccc(OC)c3)C2=O)cc1 [Example 236, 2-imino-5,5-bis(4-methoxyphenyl)-3-[(3-methoxyphenyl)-methyl]imidazolidin-4-one]
6.11 | N=C1NC(c2ccc(O)cc2)(C2CC2)C(=O)N1C1CCCCC1 (stereo not shown) [Example 551, 3-cyclohexyl-5-cyclopropyl-5-(4-hydroxyphenyl)-2-iminoimidazolidin-4-one]
5.25 | COc1ccc(C2(c3ccc(OC)cc3)NC(=N)N(Cc3ccccc3Br)C2=O)cc1 [Example 307, 3-[(2-bromophenyl)-methyl]-2-imino-5,5-bis(4-methoxy-phenyl)imidazolidin-4-one]
5.89 | N=C1NC(c2ccc(F)c(F)c2)(C2CC2)C(=O)N1C1CCOCC1 (stereo not shown) [Example 498, 5-cyclopropyl-5-(3,4-difluorophenyl)-2-imino-3-(tetrahydro-2H-pyran-4-yl)imidazolidin-4-one]
5.97 | N=C1NC(c2cccc(Cl)c2)(c2cccc(Cl)c2)C(=O)N1C1CCCCC1 [Example 267, 5,5-bis(3-chlorophenyl)-3-cyclohexyl-2-iminoimidazolidin-4-one]
5.61 | N=C1NC(c2ccc(O)cc2)(c2ccc(O)cc2)C(=O)N1C1CCOCC1 [Example 550, 5,5-bis(4-hydroxyphenyl)-2-imino-3-(tetrahydro-2H-pyran-4-yl)imidazolidin-4-one]
5.28 | COc1ccc(C2(c3ccc(OC)cc3)NC(=N)N(Cc3ccccc3F)C2=O)cc1 [Example 306, 3-[(2-fluorophenyl)-methyl]-2-imino-5,5-bis(4-methoxyphenyl)-imidazolidin-4-one]
6.50 | COc1cccc(C2(c3cccc(-c4ccncc4)c3)NC(=N)N(C3CCCCC3)C2=O)c1 (stereo not shown) [Example 225, 3-cyclohexyl-2-imino-5-(3-methoxy-phenyl)-5-[3-(pyridin-4-yl)phenyl]imidazolidin-4-one]
5.82 | COc1ccc(C2(c3ccc(OC)cc3)NC(=N)N(Cc3cccc(C(F)(F)F)c3)C2=O)cc1 [Example 249, 2-imino-5,5-bis(4-methoxyphenyl)-3-{[3-(trifluoromethyl)-phenyl]methyl} imidazolidin-4-one]
6.05 | COc1ccc(C2(c3ccc(OC)cc3)NC(=N)N(Cc3ccccc3Cl)C2=O)cc1 [Example 234, 3-[(2-chlorophenyl)-methyl]-2-imino-5,5-bis(4-methoxyphenyl)-imidazolidin-4-one]
6.37 | N=C1NC(c2ccccc2)(c2cccc(Oc3ccccc3)c2)C(=O)N1C1CCCCC1 (stereo not shown) [Example 238, 3-cyclohexyl-2-imino-5-(3-phenoxyphenyl)-5-phenylimidazolidin-4-one]
5.84 | N#Cc1cccc(-c2cccc(C3(C4CC4)NC(=N)N(C4CCCCC4)C3=O)c2)c1 (stereo not shown) [Example 486, 3′-(1-cyclohexyl-4-cyclopropyl-2-imino-5-oxoimidazolidin-4-yl)-[1,1′-biphenyl]-3-carbonitrile]
6.40 | COc1ccc(C2(c3ccc(OC)cc3)NC(=N)N(C3CCN(Cc4ccccc4O)CC3)C2=O)cc1 [Example 571, 3-(1-(2-hydroxybenzyl)piperidin-4-yl)-2-imino-5,5-bis(4-methoxyphenyl)-imidazolidin-4-one]
5.90 | COc1ccc(C2(c3ccc(OC)cc3)NC(=N)N(Cc3ccc(Cl)cc3)C2=O)cc1 [Example 232, 3-[(4-chlorophenyl)-methyl]-2-imino-5,5-bis(4-methoxyphenyl)-imidazolidin-4-one]
6.57 | N=C1NC(c2ccc(Cl)cc2)(C2CCCCC2)C(=O)N1C1CCOCC1 (stereo not shown) [Example 574, 5-(4-chlorophenyl)-5-cyclohexyl-2-imino-3-(tetrahydro-2H-pyran-4-yl)imidazolidin-4-one]
5.86 | CNC(=O)c1cccc(C2(c3ccccc3)NC(=N)N(C3CCCCC3)C2=O)c1 (stereo not shown) [Example 273, 3-(1-cyclohexyl-2-imino-5-oxo-4-phenylimidazolidin-4-yl)-N-methylbenzamide]
6.55 | N=C1NC(c2cccc(-c3cncc(Cl)c3)c2)(C2CCCCC2)C(=O)N1C1CCOCC1 (stereo not shown) [Example 516, 5-(3-(5-chloropyridin-3-yl)phenyl)-5-cyclohexyl-2-imino-3-(tetrahydro-2H-pyran-4-yl)imidazolidin-4-one]
6.08 | COc1cccc(C2(c3cccc(OCc4ccccc4)c3)NC(=N)N(C3CCCCC3)C2=O)c1 (stereo not shown) [Example 230]
6.29 | COc1ccc(C2(C3CC3)NC(=N)N(C3CCOCC3)C2=O)cc1-c1cccnc1 (stereo not shown) [Example 490, 5-cyclopropyl-2-imino-5-(4-methoxy-3-(pyridin-3-yl)phenyl)-3-(tetrahydro-2H-pyran-4-yl)imidazolidin-4-one]
6.14 | N=C1NC(c2cccc(-c3cccnc3)c2)(c2cccc(-c3cccnc3)c2)C(=O)N1C1CCCCC1 [Example 269, 3-cyclohexyl-2-imino-5,5-bis[3-(pyridin-3-yl)phenyl]imidazolidin-4-one]

Same assay, conditions: 3D7, read-out: 3D7 IC50 (μM), Table 13

SMILES | IC50 [µM]
N=C1NC(c2cccc(-c3cccnc3)c2)(C2CC2)C(=O)N1C1CCCCC1 (stereo not shown) [Example 512, 3-cyclohexyl-5-cyclopropyl-2-imino-5-(3-(pyridin-3-yl)phenyl)imidazolidin-4-one] | 0.38

Same assay, conditions: 3D7, read-out: Pf3D7 IC50 (μM), Table 10

SMILES | IC50 [µM]
CCC(CN1C(=N)NC(c2ccccc2)(c2ccccc2)C1=O)c1ccccc1 (stereo not shown) [drawing 195] | 2.76
